Source: PubChem BioAssay AID330 (DTP/NCI, 2004)
“And” between values parts separate entries of the source, which are not always exact repeats. Identical values can stand only once. Toxic doses and inconclusive results are not listed. The calls were made as follows: active = survival T/C of 150% or more; inactive = T/C below 125% in these data.

Tested on: P388 leukemia ip, CD2F1 mice, survival T/C
Assay: NCI In Vivo Anticancer Drug Screen. Data for tumor model P388 Leukemia (intraperitoneal) in CD2F1 (CDF1) mice
Details: endpoint: median survival time, higher = longer survival
Method in brief: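 Mice carrying the transplanted tumor received test compound or vehicle. Survival was recorded in each group, and the value is the treated-group measurement divided by that of the vehicle-treated control group.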

[1] = dose: 25.0 mg/kg/injection, schedule: Q01DX005 (ip), vehicle: saline with Tween-80
[2] = dose: 50.0 mg/kg/injection, schedule: Q01DX005 (ip), vehicle: saline with Tween-80
[3] = dose: 100.0 mg/kg/injection, schedule: Q01DX005 (ip), vehicle: saline with Tween-80
[4] = dose: 200.0 mg/kg/injection, schedule: Q01DX005 (ip), vehicle: saline with Tween-80
[5] = dose: 50.0 mg/kg/injection, schedule: Q01DX009 (ip), vehicle: saline with Tween-80
[6] = dose: 100.0 mg/kg/injection, schedule: Q01DX009 (ip), vehicle: saline with Tween-80
[7] = dose: 200.0 mg/kg/injection, schedule: Q01DX009 (ip), vehicle: saline with Tween-80
[8] = dose: 60.0 mg/kg/injection, schedule: Q01DX005 (ip), vehicle: saline with Tween-80
[9] = dose: 400.0 mg/kg/injection, schedule: Q01DX009 (ip), vehicle: saline with Tween-80
[10] = dose: 120.0 mg/kg/injection, schedule: Q01DX005 (ip), vehicle: saline with Tween-80
[11] = dose: 240.0 mg/kg/injection, schedule: Q01DX005 (ip), vehicle: saline with Tween-80

Measured: T/C

CCN(CC)c1nc(Cl)nc(N(CC)CC)n1
inactive: [1] 99 % of control and 97 % of control | [2] 103 % of control [middle of 4 runs] | [3] 106 % of control and 101 % of control and 107 % of control | [4] 113 % of control [middle of 4 runs] | dose: 400.0 mg/kg/injection, schedule: Q01DX005 (ip), vehicle: saline with Tween-80 100 % of control

CCN1C(=O)NC(=O)C(CC)(N2CCCCC2)C1=O (stereo unspecified)
inactive: dose: 50.0 mg/kg/injection, schedule: Q01DX005 (ip), vehicle: Klucel (hydroxypropylcellulose) (HPC) 111 % of control | dose: 100.0 mg/kg/injection, schedule: Q01DX005 (ip), vehicle: Klucel (hydroxypropylcellulose) (HPC) 98 % of control | dose: 200.0 mg/kg/injection, schedule: Q01DX005 (ip), vehicle: Klucel (hydroxypropylcellulose) (HPC) 104 % of control

[Cl][Ni][Cl].c1ccc2[nH]cnc2c1.c1ccc2[nH]cnc2c1
inactive: dose: 6.25 mg/kg/injection, schedule: Q01DX005 (ip), vehicle: saline with Tween-80 95 % of control | dose: 12.5 mg/kg/injection, schedule: Q01DX005 (ip), vehicle: saline with Tween-80 90 % of control | [1] 92 % of control

O=c1ccn2c(n1)SC(c1ccccc1)C2 (stereo unspecified)
inactive: [5] 100 % of control | [6] 98 % of control | [7] 100 % of control

COc1ccc(C2(O)OCC(COc3cc(C)c(Cl)c(C)c3)O2)cc1OC (stereo unspecified)
inactive: dose: 60.0 mg/kg/injection, schedule: Q01DX005 (ip), vehicle: DMSO 114 % of control | dose: 120.0 mg/kg/injection, schedule: Q01DX005 (ip), vehicle: DMSO 123 % of control | dose: 240.0 mg/kg/injection, schedule: Q01DX005 (ip), vehicle: DMSO 109 % of control

O=C(/C=C/c1c[nH]c2ccccc12)c1ccc([N+](=O)[O-])cc1
inactive: dose: 15.0 mg/kg/injection, schedule: Q01DX005 (ip), vehicle: saline with Tween-80 100 % of control | dose: 30.0 mg/kg/injection, schedule: Q01DX005 (ip), vehicle: saline with Tween-80 86 % of control | [8] 97 % of control

Cc1ccc(NS(=O)(=O)c2ccc([N+](=O)[O-])cc2)c(C)c1
inactive: [6] 100 % of control | [7] 105 % of control | [9] 115 % of control

O=C(Nc1ccccc1)OCC1CC1
inactive: [5] 99 % of control | [6] 115 % of control | [7] 96 % of control | [9] 89 % of control

Cc1nc2ccc(NC(=O)NC(=O)c3c(F)cccc3F)cc2s1
inactive: dose: 50.0 mg/kg/injection, schedule: Q04DX002 (ip), vehicle: saline with Tween-80 92 % of control | dose: 100.0 mg/kg/injection, schedule: Q04DX002 (ip), vehicle: saline with Tween-80 92 % of control | dose: 200.0 mg/kg/injection, schedule: Q04DX002 (ip), vehicle: saline with Tween-80 89 % of control

ClC(Cl)=C(Cl)Sc1ccccc1
inactive: [2] 105 % of control | [3] 105 % of control | [4] 107 % of control

CCOC(=O)CCC1(C)Sc2ccccc2N1C (stereo unspecified)
inactive: [8] 107 % of control | [10] 110 % of control | [11] 107 % of control

NC(=O)N/N=C1/C=CC2(CC=CCC2)CC1 (stereo unspecified)
inactive: dose: 100.0 mg/kg/injection, schedule: Q01DX001 (ip), vehicle: Klucel (hydroxypropylcellulose) (HPC) 90 % of control | dose: 200.0 mg/kg/injection, schedule: Q01DX001 (ip), vehicle: Klucel (hydroxypropylcellulose) (HPC) 104 % of control | dose: 400.0 mg/kg/injection, schedule: Q01DX001 (ip), vehicle: Klucel (hydroxypropylcellulose) (HPC) 90 % of control

CC(C)(C)N1OC2(c3ccccc3)OC3N(C(C)(C)C)OC4(c5ccccc5)OC1C2(c1ccccc1)C34c1ccccc1 (stereo unspecified)
inactive: [8] 111 % of control | [10] 87 % of control | [11] 86 % of control

c1ccc(C2Nc3ccccc3CO2)cc1 (stereo unspecified)
inactive: dose: 60.0 mg/kg/injection, schedule: Q01DX005 (ip), vehicle: Klucel (hydroxypropylcellulose) (HPC) 101 % of control | dose: 120.0 mg/kg/injection, schedule: Q01DX005 (ip), vehicle: Klucel (hydroxypropylcellulose) (HPC) 99 % of control | dose: 240.0 mg/kg/injection, schedule: Q01DX005 (ip), vehicle: Klucel (hydroxypropylcellulose) (HPC) 99 % of control

COCON=C(C)C
inactive: dose: 100.0 mg/kg/injection, schedule: Q01DX001 (ip), vehicle: saline 100 % of control | dose: 200.0 mg/kg/injection, schedule: Q01DX001 (ip), vehicle: saline 99 % of control | dose: 400.0 mg/kg/injection, schedule: Q01DX001 (ip), vehicle: saline 98 % of control

O=P(OC1=CCCCC1)(c1ccccc1)c1ccccc1
inactive: [8] 99 % of control | [10] 100 % of control | [11] 97 % of control
